Experimental data from US11926643B2, “Heterocyclic GLP-1 agonists” (Gasherbrum Bio, Inc., priority 2020, dated 2024).
Where two headings read alike, the source gives them in different places.

Target: GLP-1 Receptor (Homo sapiens, UniProt P43220)
Assay: GLP-1R agonist cAMP stimulation assay (Method 3, HEK293/GLP1R/CRE-LUC, HDB)
Type: cell-based
Conditions: HDB HEK293/CRE-Luc cell line
Method: The methodology for detection of cAMP using EFC requires incubation with 20 μL of cAMP XS+ED/CL lysis cocktail for one hour followed by incubation with 20 μL cAMP XS+EA reagent for three hours at room temperature. Microplates are read following signal generation with a PerkinElmer Envision instrument utilizing chemiluminescent signal detection. Compound activity is analyzed using CBIS data analysis suite (ChemInnovation, CA). Percentage activity is calculated using the following formula: % Activity=100%×(mean RLU of test sample−mean RLU of vehicle control)/(mean RLU of MAX control−mean RLU of vehicle control)) Method 3: Activation of GLP-1 receptor is known to stimulate cyclic AMP (cAMP) production in cells which indicates primary coupling to the Gαs subunit of the G protein heterotrimeric complex.
To optimize functional activity directed toward Gαs coupling, a HEK293/CRE-Luc cell line developed by HDB stably expressing the GLP-1 Receptor was used. 200× concentration of compound working solutions were prepared (Agilent Technologies Bravo) with 1/2 log serial dilution in 384-well Echo LDV plate (Labcyte, Cat #LP-0200). 50 nL/well 200× concentration of compound working solutions were moved to 384-well white low volume plate (Greiner, Cat #784075) using Labcyte ECHO550. 1×10^5 cells/mL HEK293/GLP1R/CRE-LUC(HD Biosciences) cell suspensions prepared with assay buffer [DPBS containing 0.5 mM IBMX(Sigma, Cat #15879) and 0.1% BSA(GENVIEW, Cat #FA016-100 g)], 10 μL cell suspensions were added to each well of previous generated assay plate which already contains 50 nL compound at 200× concentration using ThermoFisher Multidrop Combi (1000 cells/well). Seal the plate and incubate at 37° C. with 5% CO2 for 30 min.
After incubation the cAMP assay signal was generated using cAMP dynamic 2 Kit (Cisbio). 5 μL cAMP-d2 working solution was added to each well, followed with 5 μL Anti-cAMP antibody-cryptate working solution added to each well using ThermoFisher Multidrop Combi. Incubate at room temperature for 1 hour protected from light. […] (Method 3)

[1] = read-out: GLP1R cAMP Stimulation DR: EC50 (nM) [Species: Human, Assay Cell Line: HDB]
[2] = read-out: GLP1R cAMP Stimulation DR: pEC50 (M) [Species: Human, Assay Cell Line: HDB] (converted)

Chain of GLP-1 Receptor (P43220 24-463): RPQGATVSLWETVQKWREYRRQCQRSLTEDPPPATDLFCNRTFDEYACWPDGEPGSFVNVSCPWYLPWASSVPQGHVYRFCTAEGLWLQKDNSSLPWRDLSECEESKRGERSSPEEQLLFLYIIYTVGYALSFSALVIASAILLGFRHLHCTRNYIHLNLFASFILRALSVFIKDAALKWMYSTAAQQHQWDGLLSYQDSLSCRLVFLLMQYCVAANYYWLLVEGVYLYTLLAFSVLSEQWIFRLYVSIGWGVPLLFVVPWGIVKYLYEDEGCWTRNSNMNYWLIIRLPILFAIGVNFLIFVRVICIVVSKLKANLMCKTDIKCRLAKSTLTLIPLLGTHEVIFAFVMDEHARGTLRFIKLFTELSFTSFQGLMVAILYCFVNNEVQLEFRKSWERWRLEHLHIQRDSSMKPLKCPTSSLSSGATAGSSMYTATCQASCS

| SMILES | EC50 [1] [nM] | EC50 [2] [nM] |
| --- | --- | --- |
| Cc1cc(-n2nc3c(c2-n2ccn(-c4ccc(P(C)(C)=O)cc4)c2=O)[C@H](C)N(C(=O)c2cc4cc(C5CCOC(C)(C)C5)ccc4n2[C@@]2(c4noc(=O)[nH]4)C[C@@H]2C)CC3)cc(C)c1F (stereo partly drawn) [Compound 102a, 3-((1S,2S)-1-(2-((S)-3-(3-(4-(dimethylphosphoryl)phenyl)-2-oxo-2,3-dihydro-1H-imidazol-1-yl)-2-(4-fluoro-3,5-dimethylphenyl)-4-methyl-4,5,6,7-tetrahydro-2H-pyrazolo[4,3-c]pyridine-5-carbonyl)-5-(2,2-dimethyltetrahydro-2H-pyran-4-yl)-1H-indol-1-yl)-2-methylcyclopropyl)-1,2,4-oxadiazol-5 (4H)-one] | < 0.1 | ≤ 0.1 |
| CNc1cc(-n2ccn(-c3c4c(nn3-c3cc(C)c(F)c(C)c3)CCN(C(=O)c3cc5cc(C6CCOCC6)ccc5n3[C@@]3(c5noc(=O)[nH]5)C[C@@H]3C)[C@H]4C)c2=O)ccc1P(C)(=O)C(C)(C)C (stereo partly drawn) [Compound 131a, 3-((1S,2S)-1-(2-((4S)-3-(3-(4-(tert-butyl(methyl)phosphoryl)-3-(methylamino)phenyl)-2-oxo-2,3-dihydro-1H-imidazol-1-yl)-2-(4-fluoro-3,5-dimethylphenyl)-4-methyl-4,5,6,7-tetrahydro-2H-pyrazolo[4,3-c]pyridine-5-carbonyl)-5-(tetrahydro-2H-pyran-4-yl)-1H-indol-1-yl)-2-methylcyclopropyl)-1,2,4-oxadiazol-5 (4H)-one] | 0.1 to 0.2 | 0.1 to 1 |
| CNc1cc(-n2ccn(-c3c4c(nn3-c3cc(C)c(F)c(C)c3)CCN(C(=O)c3cc5cc(C6CCOCC6)ccc5n3C3(c5noc(=O)[nH]5)CC3)[C@H]4C)c2=O)ccc1P(C)(=O)C(C)(C)C (stereo partly drawn) [Compound 149a, 3-(1-(2-((4S)-3-(3-(4-(tert-butyl(methyl)phosphoryl)-3-(methylamino)phenyl)-2-oxo-2,3-dihydro-1H-imidazol-1-yl)-2-(4-fluoro-3,5-dimethylphenyl)-4-methyl-4,5,6,7-tetrahydro-2H-pyrazolo[4,3-c]pyridine-5-carbonyl)-5-(tetrahydro-2H-pyran-4-yl)-1H-indol-1-yl)cyclopropyl)-1,2,4-oxadiazol-5 (4H)-one] | 0.1 to 0.2 | 0.1 to 1 |

Next, values leading:

| EC50 [1] [nM] | EC50 [2] [nM] | SMILES |
| --- | --- | --- |
| < 0.1 | ≤ 0.1 | CCP(=O)(CC)c1ccc(-n2ccn(-c3c4c(nn3-c3cc(C)c(F)c(C)c3)CCN(C(=O)c3cc5cc([C@H]6CCOC(C)(C)C6)ccc5n3[C@@]3(c5noc(=O)[nH]5)C[C@@H]3C)[C@H]4C)c2=O)cc1 [Compound 130b, 3-((1S,2S)-1-(2-((S)-3-(3-(4-(diethylphosphoryl)phenyl)-2-oxo-2,3-dihydro-1H-imidazol-1-yl)-2-(4-fluoro-3,5-dimethylphenyl)-4-methyl-4,5,6,7-tetrahydro-2H-pyrazolo[4,3-c]pyridine-5-carbonyl)-5-((S)-2,2-dimethyltetrahydro-2H-pyran-4-yl)-1H-indol-1-yl)-2-methylcyclopropyl)-1,2,4-oxadiazol-5 (4H)-one] |
| < 0.1 | ≤ 0.1 | CCP(=O)(CC)c1ccc(-n2ccn(-c3c4c(nn3-c3cc(C)c(F)c(C)c3)CCN(C(=O)c3cc5cc(C6CCOCC6)ccc5n3[C@@]3(c5noc(=O)[nH]5)C[C@@H]3C)[C@H]4C)c2=O)cc1C(F)F [Compound 142a, 3-((1S,2S)-1-(2-((S)-3-(3-(4-(diethylphosphoryl)-3-(difluoromethyl)phenyl)-2-oxo-2,3-dihydro-1H-imidazol-1-yl)-2-(4-fluoro-3,5-dimethylphenyl)-4-methyl-4,5,6,7-tetrahydro-2H-pyrazolo[4,3-c]pyridine-5-carbonyl)-5-(tetrahydro-2H-pyran-4-yl)-1H-indol-1-yl)-2-methylcyclopropyl)-1,2,4-oxadiazol-5 (4H)-one] |
